Test results from paper PMC3141655 (BMC Biochemistry, 2011).
“Also recorded” adds a separate entry of the source. Like-named read-outs stand apart in the source and are kept apart here.

Tests used:
[1] = target: OASS; set-up: method as in PMID 7547955; settings: earlier study; read-out: Kd, reported value; cited from earlier work
[2] = target: T1, StOASS (O-acetylserine sulfhydrylase) (Salmonella typhimurium, UniProt P0A1E3); experiment: PLP fluorescence titration of ligands with StOASS; format: binding; set-up: His tag (N); made in house; host or cells: E. coli BL21(DE3), pET28a(+); settings: for change of OASS PLP fluorescence upon addition of ligand: up to ~1 mM ligand
T1 sequence (P0A1E3 whole entry): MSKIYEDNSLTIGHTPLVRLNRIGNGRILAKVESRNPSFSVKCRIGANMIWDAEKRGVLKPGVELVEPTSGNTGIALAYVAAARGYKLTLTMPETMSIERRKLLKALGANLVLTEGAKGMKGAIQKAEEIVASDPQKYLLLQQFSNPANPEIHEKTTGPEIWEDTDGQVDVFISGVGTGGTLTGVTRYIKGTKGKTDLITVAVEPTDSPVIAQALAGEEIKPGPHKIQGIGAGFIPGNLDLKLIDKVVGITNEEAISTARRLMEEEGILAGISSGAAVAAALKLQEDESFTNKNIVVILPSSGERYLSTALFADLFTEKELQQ
Method: Titrations of ligands with StOASS were examined by monitoring changes in the active site pyridoxal 5'phosphate (PLP) fluorescence of OASS using a Varian spectrofluorometer. The excitation and emission wavelengths for monitoring PLP signal change upon ligand binding were 412 nm and 507 nm respectively. All experiments were done at 23.0 ± 1°C. Slit widths were set to 5 nm for all experiments and PMT voltage was adjusted to get maximum signal for a given protein concentration. Initial readings of both the sample, Fsamp,0 and buffer, Fbuf,0 were taken, with F0 = Fsamp,0-Fbuf,0 defined as the initial fluorescence of the sample. The sample cuvette was then titrated with aliquots of ligands and mixed, equilibrated for 2-5 minutes before measurement. Data points from five such measurements were averaged to obtain Fave,i. The relative fluorescence quenching upon ligand binding is defined as Qobs,i = (F0-Fobs,i)/F0. All measurements were corrected for dilution, and inner filter effects.
Binding of ligands to OASS was analyzed to obtain the equilibrium binding constant, Kobs = [PL]/[P]*[L], using a single or two independent site binding models (eqn 1)(1) [drawing 1]
Where n, number of binding sites, Qobs, observed fluorescence quenching and Qmax, the maximum fluorescence quenching at saturation.

[3] = test system: OASS (StOASS and HiOASS); format: biochemical; settings: purified enzymes; read-out: Km,OAS
[4] = target: OASS; set-up: method as in PMID 10995767; settings: from Kext, single-wavelength stopped flow; cited from earlier work
[5] = target: T1, StOASS (O-acetylserine sulfhydrylase)
Method: (§1) Isothermal titration calorimetry (ITC) experiments were performed using a Nano-ITC (TA-Instruments). OASS was dialyzed at 25°C in 20 mM Tris buffer (pH 8.0) and 50 mM NaCl. Buffer solutions were degassed at room temperature prior to use. […] The heat of dilution for each injection was determined using buffer in the cell. Data obtained from the titration of ligands with OASS were analyzed using either a two-sites binding model (eqn 2)(2) [drawing 2]
(§2) Qi^tot is total heat after the i^th injection, V0 is the volume of calorimetric cell, K1 and K2 are the observed equilibrium constants for each site, and ΔH1 and ΔH2 are the corresponding enthalpy changes. Estimates of Kobs and ΔH were obtained by fitting the experimental data to the model and the best-fit parameters were selected based on the lowest Chi-squared values.

[6] = target: HiOASS (O-acetylserine sulfhydrylase) (Haemophilus influenzae, UniProt P45040)
Sequence of HiOASS (O-acetylserine sulfhydrylase) (P45040 whole entry): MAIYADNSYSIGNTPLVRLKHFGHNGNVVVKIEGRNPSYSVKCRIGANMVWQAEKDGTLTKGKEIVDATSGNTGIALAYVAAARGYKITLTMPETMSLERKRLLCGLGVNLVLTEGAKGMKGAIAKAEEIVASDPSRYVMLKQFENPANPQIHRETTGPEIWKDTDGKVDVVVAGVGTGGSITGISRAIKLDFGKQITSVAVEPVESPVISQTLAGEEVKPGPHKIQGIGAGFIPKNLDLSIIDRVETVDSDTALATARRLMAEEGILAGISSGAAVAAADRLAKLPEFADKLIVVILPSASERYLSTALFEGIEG
Method: as §1, §2

[7] = 25°C, 20 mM Tris pH 8.0, 50 mM NaCl

| SMILES | Kd [1] [mM] | change of OASS PLP fluorescence upon addition of ligand ([2]; pH 8.0 (20 mM Tris, 20 mM NaCl)) | change of OASS PLP fluorescence upon addition of ligand ([2]; pH 9.5 (20 mM Tris, 20 mM NaCl)) | Kd ([2]; pH 9.5, 20 mM Tris, 20 mM NaCl, read-out: Kd (equilibrium dissociation constant)) [mM] | Km [3] [µM] | Kd [4] [mM] | Kd [5] [mM] | contribution of enthalpy to total binding free energy ([5]; 25°C) | apparent binding constant [5, 7] | ΔG [5, 7] [kJ/M] | Kd [6] [mM] | contribution of enthalpy to total binding free energy ([6]; 25°C) | binding constant [6, 7] | enthalpy value [6, 7] [kJ/M] | ΔG [6, 7] [kJ/M] |
| --- | --- | --- | --- | --- | --- | --- | --- | --- | --- | --- | --- | --- | --- | --- | --- |
| N[C@@H](CO)C(=O)O [L-serine] | 4.2 | does not change OASS fluorescence; also recorded: does not change PLP | leads to changes in the OASS fluorescence; also recorded: increases the PLP fluorescence | ~3.7 | – | – | – | – | – | – | – | – | – | – | – |
| CC(=O)OC[C@H](N)C(=O)O [OAS, O-acetylserine] | – | – | – | – | 900 to 1400 | ~5.6 | 0.56 | less than 3% | ~ 1.8 ± 0.6 × 10^3 M^-1 | -17.6 | ~0.77 | less than 3% | ~ 1.3 ± 0.4 × 10^3 M^-1 | 0.45 ± 0.3 | -16.9 |
